In ChEMBL document CHEMBL1159153, “Synthesis and biological activity of 3,4,5-trihydroxy etoposide” (Bioorg Med Chem Lett, 1993):
≈ marks a conversion by molar mass, not a printed value.

Columns and labels:
[1] = test system: Mus musculus; test: Long-time survivors of mice alive/total on day 30 after administration (60 mg/kg per injection) intraperitoneally on days 1 and 5; type: functional
[2] = test system: Mus musculus; test: Long time survivors of mice alive/total on day 30 after administration (60 mg/kg per injection) intraperitoneally on days 1 and 5; 2 survived out of 4 mice.; type: functional
[3] = test system: Mus musculus; test: Long time survivors of mice alive/total on day 30 after administration of the compound; 1 survived out of 4 mice.; type: functional
[4] = test system: Mus musculus; test: Long time survivors of mice alive/total on day 30 after administration of the compound; 3 survived out of 4 mice.; type: functional
[5] = test system: Mus musculus; test: Tested for percent median survival time of drug-treated mice compared to saline -treated control at a dose of 120 mg/kg intraperitoneally; type: functional; conditions: route intraperitoneal
[6] = test system: Mus musculus; test: Tested for percent median survival time of drug-treated mice compared to saline -treated control at a dose of 40 mg/kg intraperitoneally; type: functional; conditions: route intraperitoneal
[7] = test system: Mus musculus; test: Tested for percent median survival time of drug-treated mice compared to saline -treated control at a dose of 80 mg/kg intraperitoneally; type: functional; conditions: route intraperitoneal
[8] = test system: HCT-116; test: Tested for in vitro cytotoxicity against HCT116 cells; type: functional, cell-based; conditions: Homo sapiens
[9] = test system: Mus musculus; test: Long time survivors of mice alive/total on day 30 after administration (60 mg/kg per injection) intraperitoneally on days 1 and 5; 4 survived out of 4 mice; type: functional
[10] = test system: Mus musculus; test: Tested for percent median survival time of drug-treated mice compared to saline -treated control at a dose of 100 mg/kg intraperitoneally; type: functional; conditions: route intraperitoneal
[11] = test system: Mus musculus; test: Tested for percent median survival time of drug-treated mice compared to saline -treated control at a dose of 25 mg/kg intraperitoneally; type: functional; conditions: route intraperitoneal
[12] = test system: Mus musculus; test: Tested for percent median survival time of drug-treated mice compared to saline -treated control at a dose of 50 mg/kg intraperitoneally; type: functional; conditions: route intraperitoneal
[13] = test system: HCT cell line; test: Compound was evaluated for in vitro cytotoxicity against HCT/VP35 cells; type: functional, cell-based; conditions: Homo sapiens
[14] = test system: Mus musculus; test: Long-time survivors of mice alive/total on day 30 after administration (100 mg/kg) intraperitoneally on days 5 and 8 (experiment 1); type: functional
[15] = test system: Mus musculus; test: Tested for percent median survival time of drug-treated mice compared to saline -treated control at a dose of 150 mg/kg intraperitoneally; type: functional; conditions: route intraperitoneal
[16] = test system: Mus musculus; test: Tested for percent median survival time of drug-treated mice compared to saline -treated control at a dose of 38 mg/kg intraperitoneally; type: functional; conditions: route intraperitoneal
[17] = test system: Mus musculus; test: Tested for percent median survival time of drug-treated mice compared to saline -treated control at a dose of 75 mg/kg intraperitoneally; type: functional; conditions: route intraperitoneal
[18] = Ratio of inhibition of HCT116 to that of inhibition of HCT/VP 35 cells; type: functional, HCT-116

| SMILES | Max T/C [1] [%] | LTS [3] | LTS [4] | IC50 [8] [µg/mL] | IC50 [13] [µg/mL] | Ratio [18] | other results |
| --- | --- | --- | --- | --- | --- | --- | --- |
| COC1=CC([C@@H]2c3cc4c(cc3[C@@H](O[C@@H]3O[C@@H]5CO[C@@H](C)O[C@H]5[C@H](O)[C@H]3O)[C@H]3COC(=O)[C@@H]32)OCO4)=CC(=O)C1=O | > 595 | >1 | 3 |  |  |  | LTS [2]: 2; T/C [5]: 447; T/C [6]: 274; T/C [7]: >621 |
| COc1cc([C@@H]2c3cc4c(cc3[C@@H](O[C@@H]3O[C@@H]5CO[C@@H](C)O[C@H]5[C@H](O)[C@H]3O)[C@H]3COC(=O)[C@H]23)OCO4)cc(O)c1O | > 563 | 1 | 2 | 35 (≈ 60.9 µM) |  |  | LTS [9]: 4; T/C [10]: 344; T/C [11]: 250; T/C [12]: >413 |
| C[C@@H]1OC[C@H]2O[C@@H](O[C@@H]3c4cc5c(cc4[C@@H](c4cc(O)c(O)c(O)c4)[C@H]4C(=O)OC[C@@H]43)OCO5)[C@H](O)[C@@H](O)[C@@H]2O1 |  |  |  | 79 (≈ 141 µM) | 68.9 (≈ 123 µM) | 0.87 | Max T/C [14]: 230%; T/C [15]: 150; T/C [16]: 100; T/C [17]: 130 |
| COc1cc([C@@H]2c3cc4c(cc3[C@@H](O[C@@H]3O[C@@H]5CO[C@@H](C)O[C@H]5[C@H](O)[C@H]3O)[C@H]3COC(=O)[C@H]23)OCO4)cc(OC)c1O [ETOPOSIDE] |  |  |  | 0.35 (≈ 0.595 µM) | 5.2 (≈ 8.84 µM) | 15 |  |
